{
  "source": "paper PMC7150991",
  "about": "(Viruses, 2020)",
  "key": {"influenza virus [1]": {"tested_on": "influenza virus", "settings": "cited from earlier work"}, "LET1 cells": {"tested_on": "LET1 cells", "test": "XTT cell viability assay, LET1 cells", "format": "cell-based, mouse", "settings": "48 h"}, "influenza A virus [2]": {"tested_on": "influenza A virus", "test": "microbe, parasite or virus in culture", "format": "cell-based", "settings": "48 h"}, "influenza A virus [3]": {"tested_on": "influenza A virus", "test": "microbe, parasite or virus in culture", "format": "cell-based", "settings": "72 h"}, "influenza virus [4]": {"tested_on": "influenza virus", "settings": "MDCK cells, ref Wu et al. [20], cited from earlier work"}, "ERK1": {"tested_on": "ERK1", "test": "cells", "format": "cell-based, human"}, "HAE cultures": {"tested_on": "HAE cultures", "test": "Cytotoxicity in HAE cultures", "format": "cell-based, human", "settings": "up to 160 µM (0.054 µg/mL)"}, "influenza A virus [5]": {"tested_on": "influenza A virus", "test": "microbe, parasite or virus in culture", "format": "cell-based", "settings": "MDCK, 48 h"}, "influenza A virus NP": {"tested_on": "influenza A virus NP", "format": "cell-based, human"}, "MDCK cells": {"tested_on": "MDCK cells", "test": "XTT cell viability assay, MDCK cells", "format": "cell-based, canine", "settings": "48 h"}, "H1N1 virus": {"tested_on": "H1N1 virus", "settings": "MDCK cells; ref Cecil et al. [19]; cited from earlier work"}, "influenza A virus [6]": {"tested_on": "influenza A virus", "test": "microbe, parasite or virus in culture", "format": "cell-based", "settings": "A549, 48 h"}, "A549 cells": {"tested_on": "A549 cells", "test": "XTT cell viability assay, A549 cells", "format": "cell-based, human", "settings": "48 h"}},
  "note": "pIC50: −log10 of the molar value. Several values for one entry are separate records, joined by “and”; a condition that tells them apart may be missing. Equal entries are not always repeated. Where two headings read alike, the source gives them in different places.",
  "data": [
    {"smiles": "COc1ccc2cc3[n+](cc2c1OC)CCc1cc2c(cc1-3)OCO2", "note": "[BBR, Berberine chloride hydrate]", "values": [
      {"measurement": "mice mortality", "setting": "influenza virus [1]; mice models, reduced from 90%", "value": 55, "unit": "%"},
      {"measurement": "virus titers in the lungs", "setting": "influenza virus [1]; mice, day 2 post-infection", "value": "decreased"},
      {"measurement": "TC50", "setting": "LET1 cells", "value": 521, "unit": "µM"},
      {"measurement": "TC50", "setting": "LET1 cells; value in brackets", "value": 0.176, "unit": "µg/mL"},
      {"measurement": "IC50", "setting": "influenza A virus [2]", "value": "4 µM and 1 µg/mL"},
      {"measurement": "IC50", "setting": "influenza A virus [3]", "value": "16 µM and 5 µg/mL"},
      {"measurement": "pIC50", "setting": "influenza virus [4]; conversion of 0.025 µg/mL, read-out: IC50", "value": "~4.17"},
      {"measurement": "IC50", "setting": "influenza virus [4]", "value": 0.025, "unit": "µg/mL"},
      {"measurement": "inhibition at 20 µM", "setting": "ERK1; Homo sapiens, A549, 12 h, read-out: inhibition of ERK1 activation (phospho-ERK1, Western blot)", "value": 45, "unit": "%"},
      {"measurement": "cytotoxicity at tested concentrations", "setting": "HAE cultures", "value": "did not observe cytotoxicity"},
      {"measurement": "IC50", "setting": "influenza A virus [5]", "value": "52 µM and 17 µg/mL"},
      {"measurement": "accumulation of influenza A virus NP in nuclear fractions", "setting": "influenza A virus NP", "value": "did not cause significant accumulation"},
      {"measurement": "decrease of NP signal in cytoplasmatic fraction", "setting": "influenza A virus NP", "value": "about 40 % inhibition"},
      {"measurement": "increase of viral NP in nuclear fractions compared to untreated infection", "setting": "influenza A virus NP", "value": "~ 3 fold"},
      {"measurement": "TC50", "setting": "MDCK cells", "value": 1035, "unit": "µM"},
      {"measurement": "TC50", "setting": "MDCK cells; value in brackets", "value": 0.350, "unit": "µg/mL"},
      {"measurement": "inhibition of virus replication", "setting": "H1N1 virus", "value": "No inhibition"},
      {"measurement": "IC50", "setting": "influenza A virus [6]", "value": "17 µM and 6 µg/mL"},
      {"measurement": "TC50", "setting": "A549 cells", "value": 107, "unit": "µM"},
      {"measurement": "TC50", "setting": "A549 cells; value in brackets", "value": 0.036, "unit": "µg/mL"}
    ]},
    {"smiles": "N#CC(=C(/N)Sc1ccccc1N)/C(C#N)=C(/N)Sc1ccccc1N", "note": "[U0126, reference compound]", "values": [
      {"measurement": "inhibition of ERK1 activation (phospho-ERK1, Western blot)", "setting": "ERK1", "value": 76, "unit": "% inhibition"},
      {"measurement": "decrease of NP signal in cytoplasmatic fraction", "setting": "influenza A virus NP", "value": "about 40 % inhibition"},
      {"measurement": "increase of viral NP in nuclear fractions compared to untreated infection", "setting": "influenza A virus NP", "value": "~ 3 fold"}
    ]}
  ]
}
